68 compounds from PubChem BioAssay AID624344 (Sanford-Burnham Center for Chemical Genomics, 2012) can be followed below.

Active and inactive are the calls of the source. How the calls were made is not given here.

The nature of test [1]: NFkB reporter suppression in cystic fibrosis bronchial cells – cell-based, uHTS hits, panel, cytotoxicity readout, dose response (AID 624344). To be noted: CF bronchial epithelial cells, PAF-induced NFkB reporter inhibition; with PAF, mean of runs.
The next test has as its system Cytotoxicity. The description is as above. The conditions noted are these: CF bronchial epithelial cells, mean of runs.

For the compound `COc1ccc(OC)c(-c2nnc3n2N=C(c2ccc(OC)c(OC4CCCC4)c2)CS3)c1`, the IC50 in test [1] is 6.47 µM; in the test with Cytotoxicity, > 79 µM (inactive).
In the same order, the values of `COc1ccc(-c2[nH]ncc2-c2ccc3c(c2)OCCO3)c(O)c1` are 0.186 µM and 65.4 µM (inactive).
In the same order, the values of `COC(=O)N1C(=O)[C@@](c2ccccc2)(C(C)C)N1C(=O)OC` are 4.26 µM and 38.7 µM.
In the same order, the values of `O=c1c(O)c(-c2ccccc2)oc2cc(O)cc(O)c12` are 3.27 µM and 54 µM (inactive).
Take `O=C(Nc1ccc(Cl)cc1)c1nc[nH]c1C(=O)NCCCCNC(=O)c1[nH]cnc1C(=O)Nc1ccc(Cl)cc1`: the values for the IC50 (in test [1]; in the test on Cytotoxicity) were 1.05 µM and 1.11 µM, respectively.
Consider `O=C(/C=C/c1cccs1)Nc1cccc(NC(=O)/C=C/c2cccs2)n1`, for which the IC50 is 5.98 µM in test [1] and 1.57 µM with Cytotoxicity.
In the same order, the values of `CCOC(=O)N1CCC(NC(=O)c2ccc3c(c2)N=C(C)c2c(C)ccc(C)c2S3)CC1` are 11 µM and 41.4 µM.
In the same order, the values of `O=S(=O)(Nc1cccc2cccnc12)c1ccccc1` are 1.69 µM and 44.5 µM.
As to `Brc1ccc2ncnc(NCc3ccccc3)c2c1`, the IC50 in test [1] is 0.506 µM; in the test on Cytotoxicity, 6.15 µM.
In the case of `COc1ccc(NC(=O)Nc2nnc(-c3ccncc3)s2)cc1`, the IC50 in test [1] is 5.6 µM; with Cytotoxicity it was 64.7 µM (inactive).
Regarding `CC1Cc2ccccc2N1c1ncnc2nc[nH]c12` (stereo unspecified), the IC50 in test [1] is 2.46 µM; with Cytotoxicity, 36.2 µM.
As for `COc1cccc(NC(=O)CN(C)CC(=O)Nc2ccc(C)c([N+](=O)[O-])c2)c1`, the IC50 is 6.21 µM in test [1] and > 79 µM (inactive) in the test on Cytotoxicity.
`COc1ccc(-c2ccccc2[C@H]2[C@@H]3C=CC[C@@H](C)[C@@H]3C(=O)N2Cc2ccccc2)cc1`: the results for the IC50 (in test [1]; with Cytotoxicity) were 13.6 µM and 19.6 µM, respectively.
As for `COc1ccc(C[C@H]2NC[C@H](O)[C@H]2OC(C)=O)cc1`, the IC50 in test [1] is 0.155 µM; with Cytotoxicity it was 0.799 µM.
In the same order, the values of `CCOC(=O)c1ccc(-n2[nH]c(-c3ccccc3)cc2=O)cc1` are 5.35 µM and 3.77 µM.
For `COc1ccc(-n2nnnc2S(=O)(=O)Cc2ccc(C(=O)O)cc2)cc1`, the results for the IC50 (in test [1]; with Cytotoxicity) were 1.05 µM and 3.16 µM, respectively.
In the same order, the values of `CC(=O)Nc1ccc(NC(=O)c2nc(S(=O)(=O)Cc3cccc(C)c3)ncc2Cl)cc1` are 5.98 µM and 11.5 µM.
In the same order, the values of `O=C(c1ccccc1)C1OC1C(=O)c1ccccc1` (stereo unspecified) are 6.25 µM and 54.5 µM (inactive).
In the same order, the values of `COc1cc(C(=O)c2cc3c(cc2C)OCO3)cc(OC)c1OC` are > 79 µM (inactive) and 44.5 µM.
On to `CC(C)c1nc(NCCO)c(C#N)c2c1CCCC2`, for which the IC50 in test [1] is 5.77 µM; with Cytotoxicity it was > 79 µM (inactive).
Take `CCOC(=O)C1=C(CC)Nc2ccccc2N=C1NC(=O)Nc1ccc(Cl)c(Cl)c1`: the IC50 in test [1] is 2.74 µM; in the test with Cytotoxicity, 6.06 µM.
In the same order, the values of `COc1ccc(-c2cn[nH]c2-c2ccc(OCc3ccccc3F)cc2O)cc1OC` are 3.57 µM and 18 µM.
Take `CC1(O)CC(c2ccc(Cl)cc2)=NN1C(=O)c1ccc(Cl)cc1` (stereo unspecified): the results for the IC50 (in test [1]; with Cytotoxicity) were 5.49 µM and 14 µM, respectively.
In the same order, the values of `Cc1cccc(C(=O)N[C@H](C(=O)Nc2nc3ccccc3[nH]2)C(C)C)c1` are 14.9 µM and 19.6 µM.
In the same order, the values of `Cc1ccnc(NC(=O)CSc2cc(=O)n(C)c3ccccc23)c1` are 7.95 µM and 39.4 µM.
For the compound `O=C1OC(c2ccccc2)(c2cc(Br)ccc2O)c2ccccc21` (stereo unspecified), the IC50 in test [1] was 6.65 µM; with Cytotoxicity, 42.4 µM.
In the same order, the values of `Clc1ccc(Cn2ncc3c(N4CCN(c5ccccc5)CC4)ncnc32)cc1` are 4.7 µM and 5.17 µM.
In the same order, the values of `CC(C)[C@H](CO)Nc1nc(NCc2ccc(S(N)(=O)=O)cc2)c2ncn(C(C)C)c2n1` are 1.67 µM and 11.9 µM.
In the same order, the values of `N=C1N(c2ccccc2)C(=S)C(=Nc2ccccc2)N1c1ccccc1` are 14.7 µM and 33 µM.
Regarding `CCOC(=O)c1[nH]c(C)c(C(=O)N2CCc3ccccc32)c1C`, the IC50 in test [1] is > 79 µM (inactive); in the test on Cytotoxicity it was 44.5 µM.
In the same order, the values of `C=C1C(=O)O[C@H]2C[C@H]1[C@@H](OC(C)=O)C/C(C)=C/CC/C(C)=C\CC[C@]2(C)O` are 2 µM and 2.39 µM.
In the same order, the values of `Cc1ccc(S(=O)(=O)/N=C(\CCl)N2CCOCC2)cc1` are 2.38 µM and 9.62 µM.
In the same order, the values of `FC(F)(F)c1nnc2c(Sc3ccccc3)nc3ccccc3n12` are 2.76 µM and 3.54 µM.
As to `O=C(Nc1ccc2ccccc2c1)c1ccccc1O`, the IC50 is 5.07 µM in test [1] and 2.5 µM in the test with Cytotoxicity.
`COc1ccc(COc2cc(-c3cccc(OC)c3)nc3ccc(NC(=O)c4cccnc4)cc23)cc1`: the IC50 was 4.27 µM in test [1] and 11.5 µM with Cytotoxicity.
With `COc1ccc(CNc2nn3c(-c4cccc(C(=O)N(C)C)c4)cnc3s2)cc1`, the IC50 in test [1] is 2.46 µM; in the test on Cytotoxicity it was 33.6 µM.
In the case of `CCOc1ccc(C(C(=O)NCC2CCCO2)N(Cc2cccs2)C(=O)c2snc(C(N)=O)c2N)cc1` (stereo unspecified), the IC50 in test [1] was 3.47 µM; with Cytotoxicity it was > 79 µM (inactive).
Take `CC(=O)Oc1c(Br)cc(N(C(C)=O)S(=O)(=O)c2ccccc2)c2ccccc12`: the results for the IC50 (in test [1]; with Cytotoxicity) were 7.32 µM and 9.15 µM, respectively.
In the same order, the values of `Cn1c(Sc2ccc(Cl)cc2)c(C=O)c2ccccc21` are 2.48 µM and 17.3 µM.
Regarding `Cc1c(O)ccc2c(-c3ccccc3)cc(=O)oc12`, the IC50 was 3.98 µM in test [1] and 70.9 µM (inactive) with Cytotoxicity.
`CCOC(=O)Nc1nc(-c2ccccc2)c(C(=O)c2ccccc2)s1`: the results for the half-maximal inhibitory concentration (IC50) (in test [1]; in the test with Cytotoxicity) were 14.3 µM and > 79 µM (inactive), respectively.
In the same order, the values of `COc1ccc2c(c1OC)C(=O)OC2Nc1nc(-c2ccccc2)cs1` (stereo unspecified) are 0.66 µM and 32.7 µM.
For `CCc1ccccc1NC(=O)CN(C)C(=O)Cn1ncc(Cl)c(Cl)c1=O`, the values for the IC50 (in test [1]; in the test with Cytotoxicity) were 6.43 µM and 38 µM, respectively.
In the same order, the values of `COc1cccc(NC(=O)Nc2nnc(CC(=O)Nc3ccccc3)s2)c1` are 4.89 µM and 55.8 µM (inactive).
In the same order, the values of `Cc1ccc(NC(=O)c2nc[nH]c2C(=O)NCCCNC(=O)c2[nH]cnc2C(=O)Nc2ccc(C)cc2)cc1` are 3.82 µM and 14 µM.
For the compound `CCCN(CCC)c1ncnc2nc[nH]c12`, the IC50 in test [1] is 1.32 µM; in the test on Cytotoxicity, 57.3 µM (inactive).
As for `CC(C)n1c(SCc2ccccc2F)nc2c1c(=O)n(C)c(=O)n2C`, the IC50 in test [1] was 7.01 µM; in the test with Cytotoxicity, > 79 µM (inactive).
In the same order, the values of `Cc1nc2sc(C(N)=O)c(N)c2c(C)c1CC(=O)c1ccccc1` are 10.7 µM and > 79 µM (inactive).
As for `Cc1nnc(SCC(=O)N2CCC(c3noc4ccc(F)cc34)CC2)s1`, the IC50 in test [1] is 1.18 µM; with Cytotoxicity, > 79 µM (inactive).
In the same order, the values of `Clc1ccc(CSc2nnc(-c3ccncc3)o2)cc1` are 5.92 µM and > 79 µM (inactive).
As for `COc1cc(C2c3cc4c(cc3C(O)C3COC(=O)C23)OCO4)cc(OC)c1OC` (stereo unspecified), the IC50 (in test [1]; in the test on Cytotoxicity) was > 79 µM (inactive) each time.
On to `C=C(c1ccc2nc(NC(=O)OC)[nH]c2c1)c1cccs1`, for which the IC50 in test [1] is 5.04 µM; in the test on Cytotoxicity it was 25.6 µM.
`Cc1ccc2c(c1)C(=O)C(=O)N2Cc1ccc(C(F)(F)F)cc1`: the IC50 entry in test [1] is “inactive”. The IC50 in the test with Cytotoxicity was > 79 µM (inactive).
In the same order, the values of `O=C(Nc1ccc(OCC(=O)N2CCOCC2)cc1)c1cncc(Br)c1` are 6.67 µM and > 79 µM (inactive).
Consider `Brc1ccc2ncnc(NCc3cccnc3)c2c1`, for which the IC50 is 2.25 µM in test [1] and 66.2 µM (inactive) in the test on Cytotoxicity.
In the same order, the values of `CCOc1cc2c(cc1O)C(=NOC)CC1C2CCC2(C)C(O)CCC12` (stereo unspecified) are 7.69 µM and > 79 µM (inactive).
Regarding `Cc1ccc(CCC(=O)Nc2ncc(Cc3cccc(Cl)c3Cl)s2)o1`, the IC50 was 8.87 µM in test [1] and 19.1 µM with Cytotoxicity.
In the same order, the values of `Cc1cccc(NC(=O)c2cc(-c3ccc(C)s3)nc3ccccc23)n1` are 5.26 µM and 42.4 µM.
On to `CC(=O)Oc1ccc(N(C(C)=O)S(=O)(=O)c2ccc(Cl)cc2)c2ccccc12`, for which the IC50 in test [1] is 7.37 µM; in the test on Cytotoxicity it was 22.8 µM.
With `Clc1ccc(-c2csc3ncnc(N4CCc5ccccc5C4)c23)cc1`, the IC50 in test [1] was 3.99 µM; in the test with Cytotoxicity, 19.2 µM.
In the same order, the values of `COc1cccc(C(=O)N2C(C(C)C)COc3cc(Br)ccc3S2(=O)=O)c1` (stereo unspecified) are 12 µM and 24.7 µM.
Turning to `O=c1cc(-c2ccccc2Cl)oc2cc(O)cc(O)c12`, the results for the IC50 (in test [1]; in the test on Cytotoxicity) were 5.33 µM and 55.8 µM (inactive), respectively.
In the same order, the values of `OCCCNc1ncnc2scc(-c3ccc(Cl)cc3)c12` are 2.35 µM and 32.6 µM.
In the same order, the values of `COc1ccccc1[C@]1(C)ON(c2ccccc2C(F)(F)F)C1=O` are 4.14 µM and 66.9 µM (inactive).
For `O=C1N(c2ccccc2C(F)(F)F)O[C@]1(c1ccccc1)C1CCCCC1`, the figures for the IC50 (in test [1]; in the test with Cytotoxicity) were 10.7 µM and > 79 µM (inactive), respectively.
For `Cc1ccc(CCC(=O)Nc2ncc(Cc3cc(Cl)ccc3Cl)s2)o1`, the values for the IC50 (in test [1]; in the test on Cytotoxicity) were 19.2 µM and 13.2 µM, respectively.
In the same order, the values of `CCOc1ccc(C(C(=O)NC2CCCC2)N(C(=O)c2snc(C(N)=O)c2N)c2cccc(O)c2)cc1` (stereo unspecified) are 4.37 µM and 7.27 µM.
As for `Cc1ccc2nc(SCC(=O)Nc3cc(C(F)(F)F)ccc3N3CCOCC3)[nH]c2c1`, in test [1], the IC50 entry is “inactive”. For the same compound, in the test on Cytotoxicity, the IC50 is 60.8 µM (inactive).

The term IC50 denotes the midpoint of a concentration-inhibition curve.
